In patent US9096601B2 (CSPC Zhongqi Pharmaceutical Technology (Shijiazhuang) Co., …, priority 2010, dated 2015):
Like-named read-outs stand apart in the source and are kept apart here.

Assays:
[1] = tested on: acute myelogenous leukemia cell strain MV4-11; experiment: In-vitro tumor cell proliferation inhibition, MTT; type: cell-based, human
[2] = tested on: colon cancer cell strain HCT116; experiment: In-vitro tumor cell proliferation inhibition, MTT; type: cell-based, human
MET = MET (Homo sapiens (Human), UniProt P08581); experiment: Kinase inhibitory activity, isotopic labeling (γ-33P-ATP); type: biochemical; conditions: compound at 10 μM
Sequence of MET (P08581 25-1390): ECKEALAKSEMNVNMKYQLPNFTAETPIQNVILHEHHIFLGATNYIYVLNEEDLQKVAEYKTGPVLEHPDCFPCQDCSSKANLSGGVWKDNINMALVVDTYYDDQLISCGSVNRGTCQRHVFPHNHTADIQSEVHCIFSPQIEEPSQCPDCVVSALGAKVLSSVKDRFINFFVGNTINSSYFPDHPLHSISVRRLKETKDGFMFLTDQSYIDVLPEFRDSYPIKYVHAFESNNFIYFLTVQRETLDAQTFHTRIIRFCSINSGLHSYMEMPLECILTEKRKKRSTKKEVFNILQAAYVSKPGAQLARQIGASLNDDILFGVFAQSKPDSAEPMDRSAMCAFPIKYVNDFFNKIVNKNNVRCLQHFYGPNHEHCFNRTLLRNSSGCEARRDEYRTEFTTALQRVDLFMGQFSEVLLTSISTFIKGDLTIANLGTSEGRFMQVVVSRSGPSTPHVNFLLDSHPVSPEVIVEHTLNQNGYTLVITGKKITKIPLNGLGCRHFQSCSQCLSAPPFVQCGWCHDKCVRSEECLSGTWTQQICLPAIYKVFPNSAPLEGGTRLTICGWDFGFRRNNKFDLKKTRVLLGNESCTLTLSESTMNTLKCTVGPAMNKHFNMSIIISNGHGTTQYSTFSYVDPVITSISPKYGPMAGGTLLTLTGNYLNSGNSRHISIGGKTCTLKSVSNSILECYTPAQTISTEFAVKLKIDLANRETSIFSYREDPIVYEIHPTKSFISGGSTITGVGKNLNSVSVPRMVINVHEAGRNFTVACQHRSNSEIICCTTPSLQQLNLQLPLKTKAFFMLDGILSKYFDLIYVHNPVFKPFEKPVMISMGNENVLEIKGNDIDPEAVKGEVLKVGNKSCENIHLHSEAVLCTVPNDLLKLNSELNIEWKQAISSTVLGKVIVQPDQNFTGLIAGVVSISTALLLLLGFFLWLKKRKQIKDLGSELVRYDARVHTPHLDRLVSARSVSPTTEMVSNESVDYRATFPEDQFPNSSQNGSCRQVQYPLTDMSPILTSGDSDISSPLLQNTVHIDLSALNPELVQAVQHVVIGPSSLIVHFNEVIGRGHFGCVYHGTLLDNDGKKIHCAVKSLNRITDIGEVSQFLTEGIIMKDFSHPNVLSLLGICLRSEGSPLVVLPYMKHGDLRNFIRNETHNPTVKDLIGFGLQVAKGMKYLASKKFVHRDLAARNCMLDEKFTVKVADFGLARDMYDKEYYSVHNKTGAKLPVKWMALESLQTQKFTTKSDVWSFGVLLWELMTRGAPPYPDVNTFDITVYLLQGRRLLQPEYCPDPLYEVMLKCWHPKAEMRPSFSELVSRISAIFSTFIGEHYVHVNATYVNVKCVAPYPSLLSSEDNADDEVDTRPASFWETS
Description: (§1) The object of this assay was to test the inventive compounds for the kinase inhibitory activity in vitro. In this assay, an isotopic labeling method was used to label the γ phosphate group on ATP. EGFR (including wild type, L858R mutant type and L858R/T790M double mutant type), VEGFR2, ALK, BTK, c-KIT, c-SRC, MET, PDGFRα and FLT3 kinases were tested in vitro for the activity inhibition. Staurosporine was used as a reference molecule (or referred to as a positive control). […] The IC50 value can be obtained by the calculation of the inhibitory rates at a series of different concentrations of the tested compounds.
(§2) To a reaction tube were successively added the buffer solution (8 mM MOPS, pH 7.0, 0.2 mM EDTA, 10 mM MnCl2), the kinase to be tested (5-10 mU) (EGFR/ALK/BTK/c-KIT/c-SRC/MET/PDGFRα/VEGFR2), the substrate for the kinase to be tested (a reference material), 10 mM of the solution of magnesium acetate and γ-^33 P-ATP, and different concentrations of the tested compounds. […] The reaction was terminated with […] of the 3% phosphate buffer solution. 10 μL of the reaction liquid was titrated on the Filtermat A membrane. The membrane was washed with 75 mM of the phosphate solution thrice (5 minutes each time), and then with methanol once, and finally dried. The membrane was subjected to a scintillation counting. The value of the scintillation counting reflected the phosphorylation level of the substrate and therefore could characterize the inhibition of the kinase activity.

ALK = ALK (Homo sapiens (Human), UniProt Q9UM73); experiment: as above; type: biochemical; conditions: compound at 10 μM
Sequence of ALK (Q9UM73 19-1620): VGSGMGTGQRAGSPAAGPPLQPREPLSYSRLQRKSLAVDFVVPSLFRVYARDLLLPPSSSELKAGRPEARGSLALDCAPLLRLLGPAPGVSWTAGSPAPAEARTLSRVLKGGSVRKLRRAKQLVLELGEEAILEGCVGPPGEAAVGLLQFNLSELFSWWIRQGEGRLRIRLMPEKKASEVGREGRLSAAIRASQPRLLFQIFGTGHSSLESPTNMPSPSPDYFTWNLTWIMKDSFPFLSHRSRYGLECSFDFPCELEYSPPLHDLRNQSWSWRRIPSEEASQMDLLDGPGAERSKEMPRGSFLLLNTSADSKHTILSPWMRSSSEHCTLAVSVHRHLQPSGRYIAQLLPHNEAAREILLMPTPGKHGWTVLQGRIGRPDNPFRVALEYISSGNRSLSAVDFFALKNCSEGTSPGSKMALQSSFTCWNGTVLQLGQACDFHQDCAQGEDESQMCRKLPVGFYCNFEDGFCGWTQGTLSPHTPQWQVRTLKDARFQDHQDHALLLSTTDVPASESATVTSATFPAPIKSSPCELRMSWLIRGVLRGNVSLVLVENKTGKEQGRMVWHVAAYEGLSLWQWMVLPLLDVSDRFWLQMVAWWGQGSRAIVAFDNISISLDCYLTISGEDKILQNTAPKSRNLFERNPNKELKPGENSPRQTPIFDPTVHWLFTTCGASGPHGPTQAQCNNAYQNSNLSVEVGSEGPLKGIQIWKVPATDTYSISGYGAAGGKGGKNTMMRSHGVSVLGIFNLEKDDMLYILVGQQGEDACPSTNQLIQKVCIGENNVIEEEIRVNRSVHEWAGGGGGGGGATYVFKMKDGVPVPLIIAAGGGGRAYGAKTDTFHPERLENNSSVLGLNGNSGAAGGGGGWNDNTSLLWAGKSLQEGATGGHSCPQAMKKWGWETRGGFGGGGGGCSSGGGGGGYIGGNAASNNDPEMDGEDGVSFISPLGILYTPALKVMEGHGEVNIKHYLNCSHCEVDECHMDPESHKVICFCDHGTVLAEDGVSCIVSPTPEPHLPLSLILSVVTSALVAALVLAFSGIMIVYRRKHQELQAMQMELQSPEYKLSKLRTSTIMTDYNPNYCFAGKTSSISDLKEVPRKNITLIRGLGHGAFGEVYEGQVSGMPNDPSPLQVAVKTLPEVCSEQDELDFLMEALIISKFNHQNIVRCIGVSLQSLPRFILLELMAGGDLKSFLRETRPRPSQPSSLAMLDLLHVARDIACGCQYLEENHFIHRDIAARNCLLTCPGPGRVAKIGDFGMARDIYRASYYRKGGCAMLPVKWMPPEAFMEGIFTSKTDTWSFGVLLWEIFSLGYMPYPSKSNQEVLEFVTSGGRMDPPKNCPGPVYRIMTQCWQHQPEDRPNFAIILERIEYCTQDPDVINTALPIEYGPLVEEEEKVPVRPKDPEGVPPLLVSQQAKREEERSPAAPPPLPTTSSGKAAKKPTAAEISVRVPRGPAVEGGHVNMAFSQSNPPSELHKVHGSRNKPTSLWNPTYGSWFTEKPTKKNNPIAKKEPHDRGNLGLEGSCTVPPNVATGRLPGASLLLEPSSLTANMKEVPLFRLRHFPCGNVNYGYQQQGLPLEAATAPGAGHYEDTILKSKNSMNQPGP
Description: as §1, §2

FLT3 = FLT3 (Homo sapiens (Human), UniProt P36888); experiment: as above; type: biochemical; conditions: compound at 10 μM
Sequence of FLT3 (P36888 27-993): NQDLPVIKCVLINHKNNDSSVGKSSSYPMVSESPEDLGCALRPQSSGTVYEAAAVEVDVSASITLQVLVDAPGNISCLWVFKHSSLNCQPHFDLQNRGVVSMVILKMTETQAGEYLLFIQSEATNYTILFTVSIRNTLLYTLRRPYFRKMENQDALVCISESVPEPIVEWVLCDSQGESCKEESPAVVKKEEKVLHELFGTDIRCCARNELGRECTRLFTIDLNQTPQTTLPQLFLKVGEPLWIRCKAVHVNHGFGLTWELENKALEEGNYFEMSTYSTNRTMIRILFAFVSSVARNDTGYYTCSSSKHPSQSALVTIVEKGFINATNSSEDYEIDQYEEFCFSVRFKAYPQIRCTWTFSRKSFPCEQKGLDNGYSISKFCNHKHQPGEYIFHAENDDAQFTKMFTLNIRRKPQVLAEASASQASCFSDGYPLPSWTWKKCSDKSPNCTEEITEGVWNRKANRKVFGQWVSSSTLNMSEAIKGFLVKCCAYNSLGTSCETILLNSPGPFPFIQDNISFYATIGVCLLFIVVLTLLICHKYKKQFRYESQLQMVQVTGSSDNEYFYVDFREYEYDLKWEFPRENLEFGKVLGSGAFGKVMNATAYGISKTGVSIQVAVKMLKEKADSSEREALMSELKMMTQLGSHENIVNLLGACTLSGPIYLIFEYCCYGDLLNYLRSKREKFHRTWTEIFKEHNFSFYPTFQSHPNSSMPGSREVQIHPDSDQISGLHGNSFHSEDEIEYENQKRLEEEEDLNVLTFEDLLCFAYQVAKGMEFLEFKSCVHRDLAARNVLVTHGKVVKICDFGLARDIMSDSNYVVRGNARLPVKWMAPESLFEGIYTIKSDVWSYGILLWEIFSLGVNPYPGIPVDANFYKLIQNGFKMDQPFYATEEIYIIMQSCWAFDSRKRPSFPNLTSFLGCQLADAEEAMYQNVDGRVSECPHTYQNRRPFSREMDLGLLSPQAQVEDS
Description: as §1, §2

c-KIT = c-KIT (Homo sapiens (Human), UniProt P10721); experiment: as above; type: biochemical; conditions: compound at 10 μM
Description: as §1, §2

BTK = BTK (Homo sapiens (Human), UniProt Q06187); experiment: as above; type: biochemical; conditions: compound at 10 μM
Description: as §1, §2

PDGFRα = PDGFRα (Homo sapiens (Human), UniProt P16234); experiment: as above; type: biochemical; conditions: compound at 10 μM
Sequence of PDGFRα (P16234 24-1089): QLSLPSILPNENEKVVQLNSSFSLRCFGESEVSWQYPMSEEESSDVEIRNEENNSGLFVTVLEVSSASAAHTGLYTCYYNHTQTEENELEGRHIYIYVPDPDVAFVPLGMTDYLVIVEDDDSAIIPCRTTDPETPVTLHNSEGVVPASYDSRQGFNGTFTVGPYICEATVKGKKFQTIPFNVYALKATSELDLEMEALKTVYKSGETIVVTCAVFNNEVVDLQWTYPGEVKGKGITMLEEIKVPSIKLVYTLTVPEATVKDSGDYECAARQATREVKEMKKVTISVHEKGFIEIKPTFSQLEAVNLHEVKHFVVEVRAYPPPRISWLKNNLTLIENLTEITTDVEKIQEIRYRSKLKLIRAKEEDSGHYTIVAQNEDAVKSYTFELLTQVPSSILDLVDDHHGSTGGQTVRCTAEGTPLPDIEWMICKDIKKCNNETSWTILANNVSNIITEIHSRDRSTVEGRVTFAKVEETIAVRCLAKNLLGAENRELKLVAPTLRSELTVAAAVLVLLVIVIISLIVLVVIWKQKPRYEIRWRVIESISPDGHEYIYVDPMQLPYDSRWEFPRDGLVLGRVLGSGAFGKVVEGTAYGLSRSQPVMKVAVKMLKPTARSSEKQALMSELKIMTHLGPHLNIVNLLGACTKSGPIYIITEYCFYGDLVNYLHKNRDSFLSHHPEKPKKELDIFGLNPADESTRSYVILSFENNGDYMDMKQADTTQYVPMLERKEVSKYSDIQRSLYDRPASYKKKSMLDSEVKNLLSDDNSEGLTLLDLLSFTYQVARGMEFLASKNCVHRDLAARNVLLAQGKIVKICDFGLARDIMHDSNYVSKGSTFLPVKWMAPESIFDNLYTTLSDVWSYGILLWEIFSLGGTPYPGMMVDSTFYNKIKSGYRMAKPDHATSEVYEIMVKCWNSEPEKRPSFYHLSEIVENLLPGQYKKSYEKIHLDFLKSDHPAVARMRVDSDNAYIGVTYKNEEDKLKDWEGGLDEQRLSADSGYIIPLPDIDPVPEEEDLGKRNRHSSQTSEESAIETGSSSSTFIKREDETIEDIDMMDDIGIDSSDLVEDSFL
Description: as §1, §2

c-SRC = c-SRC (Homo sapiens (Human), UniProt P12931); experiment: as above; type: biochemical; conditions: compound at 10 μM
Description: as §1, §2

VEGFR2 = VEGFR2 (Homo sapiens (Human), UniProt P35968); experiment: as above; type: biochemical
Description: as §1, §2

Structure (SMILES) | IC50 ([1]; 72 hours) [nM] | IC50 ([2]; 72 hours) [nM] | The kinase activity inhibitory rate (%) by the tested compounds at 10 μM MET (MET) [%] | The kinase activity inhibitory rate (%) by the tested compounds at 10 μM ALK (ALK) [%] | The kinase activity inhibitory rate (%) by the tested compounds at 10 μM FLT3 (FLT3) [%] | The kinase activity inhibitory rate (%) by the tested compounds at 10 μM c-KIT (c-KIT) [%] | The kinase activity inhibitory rate (%) by the tested compounds at 10 μM BTK (BTK) [%] | The kinase activity inhibitory rate (%) by the tested compounds at 10 μM PDGFRα (PDGFRα) [%] | The kinase activity inhibitory rate (%) by the tested compounds at 10 μM c-SRC (c-SRC) [%] | IC50 (VEGFR2; ATP 90 μM (Km)) [nM] | IC50 ([1]; Homo sapiens, MV4-11, 72 hours) [nM] | IC50 ([2]; Homo sapiens, HCT-116, 72 hours) [nM] | inhibition at 10 µM (MET; read-out: The kinase activity inhibitory rate (%) by the tested compounds at 10 μM MET) [%] | inhibition at 10 µM (ALK; read-out: The kinase activity inhibitory rate (%) by the tested compounds at 10 μM ALK) [%] | inhibition at 10 µM (FLT3; read-out: The kinase activity inhibitory rate (%) by the tested compounds at 10 μM FLT3) [%] | inhibition at 10 µM (c-KIT; read-out: The kinase activity inhibitory rate (%) by the tested compounds at 10 μM c-KIT) [%] | inhibition at 10 µM (BTK; read-out: The kinase activity inhibitory rate (%) by the tested compounds at 10 μM BTK) [%] | inhibition at 10 µM (PDGFRα; read-out: The kinase activity inhibitory rate (%) by the tested compounds at 10 μM PDGFRα) [%] | inhibition at 10 µM (c-SRC; read-out: The kinase activity inhibitory rate (%) by the tested compounds at 10 μM c-SRC) [%] | IC50 (VEGFR2) [nM]
CC(C)n1c(Nc2ccccc2)nc2cnc(Nc3ccc(C(=O)NN4CCN(C)CC4)cc3)nc21 [Compound 8-1] | 89 | > 10000 | 83 | 23 | 85 | 26 | 46 | 43 | 11 | > 1000 | – | – | – | – | – | – | – | – | – | –
CC(C)n1c(Nc2ccc(F)c(Cl)c2)nc2cnc(Nc3ccc(C(=O)NN4CCN(C)CC4)cc3)nc21 [Compound 8-2] | 1770 | 7810 | 100 | 63 | 78 | 90 | 98 | 84 | 99 | > 1000 | – | – | – | – | – | – | – | – | – | –
COc1cc(C(=O)NN2CCN(C)CC2)ccc1Nc1ncc2nc(Nc3ccccc3)n(C(C)C)c2n1 [Compound 8-7, 3-methoxy-4-(9-isopropyl-8-phenylamino-9H-purin-2-ylamino)-N-(4-methylpiperazin-1-yl)benzamide] | – | – | – | – | – | – | – | – | – | – | > 10000 | > 10000 | 0 | 61 | 0 | 8 | 12 | 9 | 28 | > 1000
CC(C)n1c(Nc2ccccc2)nc2cnc(Nc3ccc(C(=O)NC4CCN(C)CC4)cc3)nc21 [Compounds 8-9] | 235 | 518 | 67 | 36 | 76 | 96 | 88 | 88 | 98 | > 1000 | – | – | – | – | – | – | – | – | – | –
CC(C)n1c(Nc2cccc(Br)c2)nc2cnc(Nc3ccc(N4CCN(C)CC4)cc3)nc21 [Compounds 8-11] | 3760 | 1680 | 93 | 33 | 67 | 67 | 77 | 58 | 98 | 140 | – | – | – | – | – | – | – | – | – | –
C#Cc1cccc(Nc2nc3cnc(Nc4ccc(N5CCN(C)CC5)cc4)nc3n2C(C)C)c1 [Compounds 8-12] | 1710 | 4010 | 93 | 80 | 56 | 82 | 78 | 55 | 98 | 50 | – | – | – | – | – | – | – | – | – | –
CC(C)n1c(Nc2ccc(F)c(Cl)c2)nc2cnc(Nc3ccc(N4CCN(C)CC4)cc3)nc21 [Compounds 8-13] | 512 | 2540 | 100 | 78 | 89 | 87 | 45 | 90 | 31 | > 1000 | – | – | – | – | – | – | – | – | – | –
CC(C)n1c(Nc2ccc(Br)cc2)nc2cnc(Nc3ccc(N4CCN(C)CC4)cc3)nc21 [Compounds 8-15] | 197 | 2200 | 45 | 40 | 90 | 94 | 95 | 94 | 97 | 4 | – | – | – | – | – | – | – | – | – | –
CC(C)n1c(Nc2cccc(C(F)(F)F)c2)nc2cnc(Nc3ccc(N4CCN(C)CC4)cc3)nc21 [Compounds 8-16] | 4800 | 766 | 93 | 17 | 45 | 62 | 57 | 39 | 90 | > 1000 | – | – | – | – | – | – | – | – | – | –
COc1cccc(Nc2nc3cnc(Nc4ccc(N5CCN(C)CC5)cc4)nc3n2C(C)C)c1 [Compounds 8-17] | 684 | 813 | 52 | 35 | 86 | 89 | 100 | 72 | 99 | > 1000 | – | – | – | – | – | – | – | – | – | –
